Earlier results in patent US9783526B2, “Control of hypoxia-inducible gene expression with oligooxopiperazine nonpeptidic helix mimetics” (New York University, priority 2012, dated 2017).

Key:
[1] = test system: experimental animals; conditions: in vivo
[2] = test system: HIF-1α C-TAD and p300/CBP

Row | SMILES | adverse effects in experimental animals [1] | inhibition of the interaction between HIF-1α C-TAD and p300/CBP [2]
1 | CN1C(=O)[C@@]23C[C@]4([C@]56C[C@@]78SS[C@@](CO)(C(=O)N7[C@H]5Nc5ccccc56)N(C)C8=O)c5ccccc5N[C@@H]4N2C(=O)[C@]1(CO)SS3 [chaetocin] | induced coagulative necrosis, anemia, and leukocytosis | 
2 | CN1C(=O)[C@]2(Cc3cn([C@]45C[C@@]67SS[C@@](CO)(C(=O)N6[C@H]4Nc4ccccc45)N(C)C7=O)c4ccccc34)SS[C@@]1(CO)C(=O)N2C [chetomin] | induced coagulative necrosis, anemia, and leukocytosis | inhibit the interaction
